Results reported in US20070218456A1, “CELLULAR ASSAYS FOR SIGNALING RECEPTORS” (INVITROGEN CORPORATION, priority 2006, published 2007).
Read-outs that look alike come from different tables or passages of the source.

Key:
[1] = tested on: hGPR23; experiment: LPA dose response on hGPR23-CRE-bla CHO-K1 selected pool; format: cell-based, human; conditions: 5 hrs stimulation
From the text: An attempt was made to develop a GPR23 assay by stably expressing a human GPR23 (hGPR23) in a CRE-bla CHO-K1 cell line. The CRE-bla CHO-K1 cell line has a non-GPR23 specific endogenous response to LPA (see Example 18), but by adding the human GPR23 to the cells it could have been possible to increase the LPA responsiveness of these cells or create a constitutively active cell line that could be used to screen for inverse agonists of the hGPR23 receptor. The hGPR23 expression plasmid was transfected into the CRE-bla CHO-K1 cell line. Lipofectamine 2000 (Invitrogen) was used at a ratio of 0.4 ug of DNA per every uL of Lipofectamine 2000 following manufacturer's directions.
(§1) A stable pool was selected using Zeocin. LPA dose response on the hGPR23-CRE-bla CHO-K1 selected pool and CRE-bla CHO-K1 cell line was performed. The cells were plated at 50,000 cells per well in a 96 well assay plate in OptiMEM+0.5% FBS and placed at 37° C. 5% CO2 overnight. The cells were then stimulated with a four fold dilution series of LPA in DMEM+0.1% BSA for 5 hrs. and loaded with substrate for 2 hrs.

[2] = tested on: CRE-bla CHO-K1 cell line; experiment: LPA dose response on CRE-bla CHO-K1 cell line; format: cell-based, Chinese hamster; conditions: CRE-bla CHO cells; 5 hrs stimulation
Experimental: as §1

[3] = tested on: GPR23; experiment: Perkin Elmer LANCE cAMP assay on T-REx-GPR23-CHO-K1 clones; format: cell-based, human; conditions: un-induced, read-out: LPA EC50 (cAMP)
Experimental: (§2) Two inducible T-RExTM-GPR23-CHO-K1 clones and a parental control (T-RExTM-CHO-K1) were tested using the Perkin Elmer LANCE cAMP assay. The cells were serum starved and induced in growth medium +/-1 μg/ml tetracycline +100 ng/ml pertussis toxin without FBS for 24 hrs prior to the assay. The cells were then harvested using […] assayed for LPA responsiveness using the Perkin Elmer Lance assay according to the manufacture's instructions.

[4] = tested on: T-REx™-CHO-K1; experiment: Perkin Elmer LANCE cAMP assay on parental T-REx-CHO-K1; format: cell-based, Chinese hamster; conditions: read-out: LPA EC50 (cAMP)
Experimental: as §2

[5] = tested on: NFAT and CRE CHO-K1 cell lines; experiment: Transient transfection assay, NFAT-bla and CRE-bla CHO-K1, response to LPA; format: cell-based, Chinese hamster; conditions: 10 μM LPA; absence of transfected GPR23
From the text: (§3) To begin development of a GPR23 assay in GeneBLAzer® CellSensor™ cell lines (Invitrogen), GPR23 was first tested in a transient transfection assay in the NFAT-bla HEK (Catalog# K1179, Invitrogen), the CRE-bla HEK (Catalog# K1112, Invitrogen), the NFAT-bla CHO-K1 (Catalog# K1078, Invitrogen), the CRE-bla CHO-K1 (Catalog# K1129, Invitrogen), the NFAT-bla Jurkat CellSensor™ cell lines (Catalog# K1077, Invitrogen) and the CRE-bla Jurkat CellSensor™ cell lines (Catalog# K1134, Invitrogen). The hGPR23 expression plasmid was transfected into the cell lines. Lipofectamine 2000 (Invitrogen) was used at a ratio of 0.4 ug of DNA per every uL of Lipofectamine 2000 following manufacturer's directions. After 48 hours the cells were assayed for a response to 10 μM LPA.

[6] = tested on: Jurkat cells; experiment: Transient transfection assay, NFAT-bla and CRE-bla Jurkat, response to LPA; format: cell-based; conditions: 10 μM LPA
From the text: as §3

[7] = tested on: HEK cells; experiment: Transient transfection assay, NFAT-bla and CRE-bla HEK, response to LPA; format: cell-based, human; conditions: 10 μM LPA
From the text: as §3

[8] = tested on: GPR23; experiment: LPA responsiveness of T-REx-GPR23 CRE-bla-CHO-K1 clone H6-E2; format: cell-based, human; conditions: un-induced cells
Experimental: (§4) The cells were plated at 20,000 cells per well in a 384 well black walled clear bottom tissue culture assay plate in complete media (DMEM+10% FBS). The plates were then placed at 37° C. 5% CO2 for 6 hrs to allow the cells to attach to the assay plate. The complete media was then removed from the plate and replaced with assay media (DMEM+0.1% BSA) containing 100 ng/ml pertussis toxin and 0.5% DMSO, with or without 10 μg/ml doxycycline. The plates were placed at 37° C. 5% CO2 for 16 hrs to allow the induced expression of the GPR23 receptor. The cells were then stimulated for five hours with a four fold dilution series of LPA starting at 1 μM. The cells were then loaded with LiveBLAzer™-FRET B/G substrate (2 μM) containing solution D for 2 hrs.

[9] = biological target: T1, GPR23 (Homo sapiens, UniProt Q99677); experiment: LPA response of stably transfected GPR23-CRE-bla HEK pool; format: cell-based; parameters: expressed in transfected cells; host or cells: CellSensor CRE-bla HEK (Invitrogen K1112), stably selected pool
T1 sequence (Q99677 whole entry): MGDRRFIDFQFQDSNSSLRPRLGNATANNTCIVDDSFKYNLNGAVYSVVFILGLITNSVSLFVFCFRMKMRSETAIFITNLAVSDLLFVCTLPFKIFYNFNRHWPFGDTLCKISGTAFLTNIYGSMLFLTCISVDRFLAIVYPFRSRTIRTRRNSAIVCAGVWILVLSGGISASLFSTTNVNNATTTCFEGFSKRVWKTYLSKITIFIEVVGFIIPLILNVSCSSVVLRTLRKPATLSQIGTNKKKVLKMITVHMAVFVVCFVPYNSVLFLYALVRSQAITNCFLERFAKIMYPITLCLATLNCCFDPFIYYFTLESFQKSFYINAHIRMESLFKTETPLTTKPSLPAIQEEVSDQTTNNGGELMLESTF
Experimental: Assay construction continued in the NFAT-bla and CRE-bla, HEK and Jurkat CellSensor™ cell lines. These cell lines were taken to the point of stably selected pools at which point they were tested for a response to LPA. Only the stably transfected GPR23-CRE-bla HEK pool gave a response to LPA. The response was <1.5 fold but reproducible.

[10] = biological target: T1, GPR23; experiment: Perkin Elmer LANCE cAMP assay on T-REx-GPR23-CHO-K1 clones; format: cell-based; parameters: expressed in transfected cells; host or cells: CHO-K1 with tet repressor (T-REx); clones E1 and H6, later CRE-bla subclone H6-E2; conditions: read-out: LPA EC50 (cAMP)
Experimental: as §2

[11] = biological target: T1, GPR23; experiment: LPA responsiveness of T-REx-GPR23 CRE-bla-CHO-K1 clone H6-E2; format: cell-based; parameters: expressed in transfected cells; host or cells: CHO-K1 with tet repressor (T-REx); clones E1 and H6, later CRE-bla subclone H6-E2
Experimental: as §4

Q: Which results are given for “1 or 2-acyl-sn-glycero-3-phosphate [LPA]”?
A: EC50 [1]: 258 nM; EC50 [2]: 239 nM; EC50 ([3]; E1 clone): 2000 nM; EC50 ([3]; H6 clone): 1500 nM; EC50 ([4]; parent induced (1 μg/ml tetracycline)): 915 nM; EC50 ([4]; parent, un-induced): 5000 nM; response to LPA [5]: positive response; response to LPA ([6]; GPR23 transfected cells): no response; response to LPA ([6]; endogenous (untransfected)): no endogenous response; response to LPA ([7]; GPR23 transfected CRE-bla HEK cell line): only a small response; response to LPA ([7]; endogenous (untransfected)): no endogenous response; response of the cells to LPA [8]: 9 fold; response to LPA [9]: < 1.5 fold; EC50 ([10]; E1 clone induced (1 μg/ml tetracycline)): 30.3 nM; EC50 ([10]; H6 induced (1 μg/ml tetracycline)): 13.8 nM; response of the cells to LPA ([11]; induced cells): 2.3 fold; EC50 ([11]; induced cells (10 μg/ml doxycycline, 16 hrs), LPA five hours): 2.3 nM
